The results in this text go back to PubChem BioAssay AID743402 (Broad Institute, 2014).

One experiment deals with FRT CFTR-F508del YFP iodide quenching, 24 h. As to the kind of experiment: restoration of mutant CFTR halide transport – FRT cells, YFP quenching, cherry-pick, dose response (AID 743402).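 Further: compounds act as correctors raising surface CFTR-F508del before acute activation.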
Conditions: not given
On to `CC1(C)OC(c2ccccc2)=C/C(=C/C=C2C(=O)NC(=S)NC2=O)O1`, for which the AC35 is 3.34 µM.
With `C=C1C(=O)O[C@@H]2C[C@@H](C)[C@@H]3C=CC(=O)[C@@]3(C)[C@@H](O)[C@H]12`, the AC35 was 5.32 µM.
Same read-out and setting: to `O=[N+]([O-])c1ccc(N2CCOCC2)c2c1no[n+]2[O-]` belongs 10.4 µM; to `CC1=NCCc2c1[nH]c1cc(O)ccc21`, 13.4 µM; to `COC1C(C)OC(OC2CC(C)(O)Cc3cc4c(c(O)c32)C(=O)c2c(O)cc3c(c2C4=O)OC2OC3(C)C(O)C(N(C)C)C2O)C(OC)C1(C)OC` (centres undefined), 2.39 µM.
With `CC[n+]1c(-c2ccccc2)c2cc(N)ccc2c2ccc(N)cc21`, the AC35 is 13.3 µM.

The experiment is the same for the next values; noted with them: channel opened with forskolin and a potentiator.
For the compound `CCOC1=C/C(=C/c2c(N)n3nc(S(=O)(=O)CC)sc3nc2=O)C=CC1=O`, the AC35 was 9.92 µM.
The same measure, in the same setting: to `O=C(O)c1ccccc1-c1c2cc(I)c(=O)c(I)c-2oc2c(I)c(O)c(I)cc12` belongs 1.74 µM; to `CN1/C(=C\C=C2/SC(=S)N(CC(=O)O)C2=O)C(C)(C)c2ccccc21`, 1.37 µM.
`C#C[C@]1(O)CC[C@H]2[C@@H]3CCc4cc(OC5CCCC5)ccc4[C@H]3CC[C@@]21C`: the AC35 is 25.1 µM.
With `COc1cccc(S(=O)(=O)N2C[C@@H]3N[C@H](C2)C3c2ccc(-c3cccc(C)c3)cc2)c1` (some centres undefined), the AC35 was 21 µM.
Consider `CCCC#Cc1ccc([C@H]2[C@@H](CO)N3CCCCN(S(=O)(=O)c4ccccc4C)C[C@H]23)cc1`, for which the AC35 is 19 µM.
`CC(C)N1CCc2c(sc(NC(=O)c3ccc([N+](=O)[O-])o3)c2C(N)=O)C1`: the AC35 was 6.42 µM.
On the same count and under the same terms, under `CC(=O)Nc1ccc2cc3ccc(NC(C)=O)cc3nc2c1` stands 3.98 µM.
Same read-out and setting: under `COc1cccc(Nc2nc(-c3sc(NC(=O)c4ccccc4)nc3C)cs2)c1` stands 4.43 µM; under `c1ccc2c(c1)C1=NCCN1c1ccccc1-2`, 8.91 µM; under `CC(C)n1cc(/C=C/c2cc[n+](C)cc2)c2ccccc21`, 0.752 µM.
Same read-out and setting: to `CCCCN1C(=O)/C(=C/C=C2\Oc3ccccc3N2CC)SC1=S` belongs 1.64 µM; to `O=c1ccc2[n+]([O-])c3ccc(O)cc3oc-2c1`, 10.9 µM; to `CCN1/C(=C\c2ccc3cc(C)ccc3[n+]2CC)Sc2cc(C)c(C)cc21`, 1.02 µM.
Turning to `COc1cc(OC)cc(C(=O)N[C@H](C(=O)Nc2nc3ccccc3[nH]2)C(C)C)c1`, the AC35 was 9.27 µM.
The same measure, in the same setting: under `CCN(CC)CCCNc1ccc2ncn3c4ccc(O)cc4c(=O)c1c23` stands 4.01 µM; under `O=C(C1CCCC1)N1CC(=O)N2[C@H](CO)[C@@H](c3ccc(-c4ccccc4F)cc3)[C@@H]2C1`, 22.2 µM.
The same measure, in the same setting: under `N#C/C(=C\c1ccccn1)c1nc2ccccc2s1` stands 3.38 µM; under `Cc1ccc(N2C(=O)c3cccc4c([N+](=O)[O-])ccc(c34)C2=O)c2cccnc12`, 4.81 µM.
For `COc1cc(/C=C2\SC(=Nc3ccc(Cl)c(C(=O)O)c3)NC2=O)c(Br)c(Br)c1O`, the AC35 was 2.19 µM.
Same read-out and setting: to `Cc1cc(Nc2ccc(Br)cc2)nc2ccccc12` belongs 8.45 µM.
With `O=C(Cc1ccccc1)N1CC(=O)N2[C@H](C1)[C@@H](c1ccc(C#Cc3ccccc3)cc1)[C@@H]2CO`, the AC35 is 21.3 µM.
On the same count and under the same terms, to `Nc1ccc2c3c(cccc13)C(=O)N(c1ccccc1)C2=O` belongs 1.93 µM; to `CC1(S(=O)(=O)O)CC(=O)c2ccccc2C1=O` (centres undefined), 6 µM; to `CC(C)Nc1nc(Nc2ccc(Cl)cc2F)c2sccc2n1`, 12.7 µM.
The same measure, in the same setting: to `CN(C)/C=C1\C=C2C(=O)c3ccccc3N2C1=O` belongs 2.19 µM; to `COC(C(=O)C(O)C(C)O)C1Cc2cc3cc(OC4CC(OC5CC(O)C(O)C(C)O5)C(O)C(C)O4)c(C)c(O)c3c(O)c2C(=O)C1OC1CC(OC2CC(OC3CC(O)C(OC)C(C)O3)C(O)C(C)O2)C(O)C(C)O1` (centres undefined), 0.583 µM.
For `CC(=O)OCCn1c2nc(=O)[nH]c(=O)c-2nc2cc(C)c(C)cc21`, the AC35 is 1.37 µM.
For `C[C@@H]1CN([C@@H](C)CO)C(=O)Cc2cc(N(C)C)ccc2O[C@@H]1CN(C)Cc1ccc(C(=O)Nc2ccccc2N)cc1`, the AC35 was 19.7 µM.
On to `COc1cccc2c1C(=O)c1c(O)c3c(c(O)c1C2=O)C[C@](O)(C(C)=O)C[C@H]3O[C@@H]1C[C@@H](N)[C@@H](O)[C@@H](C)O1`, for which the AC35 is 1.65 µM.
On the same count and under the same terms, to `COc1cccc2c1C(=O)C=C(C)C2=O` belongs 6.68 µM; to `C=CCCC(=O)Nc1nc(C)c(-c2csc(Nc3cc(OC)ccc3OC)n2)s1`, 4.51 µM; to `COc1ccc(S(=O)(=O)N2CC[C@@H]3[C@H](CO)N(C)c4ccc(-c5ccc(F)cc5)cc4[C@@H]32)cc1`, 15.3 µM.
On to `COc1cccc2c1C(=O)c1c(O)c3c(c(O)c1C2=O)CC(O)(C(=O)CO)CC3OC1CC(N(C)C)C(O)C(C)O1` (centres undefined), for which the AC35 was 1.37 µM.
`C[C@@H]1CCCCO[C@H](CN(C)Cc2ccc(Cl)c(Cl)c2)[C@@H](C)CN([C@@H](C)CO)C(=O)c2cc(NS(=O)(=O)c3ccc(Cl)cc3)ccc2O1`: the AC35 was 23.5 µM.
Consider `CNc1ccc2c3c(cccc13)C(=O)N(C)C2=O`, for which the AC35 is 0.651 µM.
The same measure, in the same setting: to `COC(=O)c1ccccc1-c1c2ccc(=N)cc-2oc2cc(N)ccc12` belongs 0.0334 µM; to `Nc1ccc(-c2c3ccc(=O)cc-3oc3cc(O)ccc23)cc1C(=O)O`, 1.61 µM; to `CCOC(=O)/C(=C/C=C1\Sc2cc(C)c(C)cc2N1CC)C(C)=O`, 3.13 µM.
On the same count and under the same terms, to `COc1cccc(S(=O)(=O)N2C[C@@H]3N[C@H](C2)C3c2ccc(-c3ccccc3F)cc2)c1` (some centres undefined) belongs 24.5 µM; to `COC(=O)c1cc2c(=O)c3ccccc3oc2nc1/C=C/N(C)C`, 0.544 µM.
Still for that read-out and setting: to `O=C1c2cccc3c([N+](=O)[O-])ccc(c23)C(=O)N1Cc1cccnc1` belongs 9.18 µM; to `COc1c(C=O)c2c(c(OC)c1OC)-c1ccc(OC)c(=O)cc1C(NC(C)=O)CC2` (centres undefined), 20.9 µM.
As for `O=S(=O)(c1ccc(F)cc1)N1CC[C@@H]2[C@@H](CO)Nc3ccc(-c4ccc(F)cc4)cc3[C@@H]21`, the AC35 was 17.7 µM.
Same read-out and setting: to `CN1C(=O)c2cccc3c(N)ccc(c23)C1=O` belongs 2.62 µM.
As for `CCN(CC)C1=CC2=CC(=C(C#N)C#N)CCC2CC1` (centres undefined), the AC35 was 0.0855 µM.
Still for that read-out and setting: under `Cc1cc(C)c(/C=C2\C(=O)Nc3ccccc32)[nH]1` stands 3.24 µM.
Consider `COc1ccc(/C=N/NC(=O)c2cccnc2)cc1CSc1ccccn1`, for which the AC35 is 8.21 µM.
On the same count and under the same terms, under `OC[C@@H]1[C@@H](c2ccccc2)C2(CN(Cc3ccccc3F)C2)N1Cc1ccccc1F` stands 23.1 µM; under `CCCC(=O)NC1=C(Cl)C(=O)c2ccccc2C1=O`, 7.72 µM; under `N#Cc1ccc(-c2ccc3c(c2)[C@H]2[C@H](CCN2S(=O)(=O)c2ccccc2F)[C@@H](CO)N3)cc1`, 21.3 µM.
In the case of `CNc1c2cccc(C)c2nc2c(C(=O)NCCN(C)C)cccc12`, the AC35 was 10.5 µM.
On to `COc1ccc([C@H]2CC(=O)C=C(c3ccc(OC)cc3OC)C2)cc1`, for which the AC35 was 25 µM.
Still for that read-out and setting: to `CCCOc1cc(N(CC)CC)ccc1/C=C(/C#N)c1nc2ccc(C)cc2[nH]1` belongs 0.505 µM; to `O=C1c2cccc3c(O)ccc(c23)C(=O)N1Cc1ccco1`, 2.65 µM.
With `C[C@H]1CN([C@@H](C)CO)S(=O)(=O)c2ccc(/C=C/c3ccccc3)cc2O[C@H]1CN(C)Cc1ccccc1`, the AC35 is 21.9 µM.
Take `CC(=NNC(=O)c1ccncc1)c1ccc2ccccc2c1O`: the AC35 was 4.3 µM.
Same read-out and setting: to `N#CC(C#N)=C1C=C2C=C(N3CCOCC3)CCC2CC1` (centres undefined) belongs 0.14 µM; to `O=c1c2ccccc2sc2c(CO)ccc(NCCN3CCCCC3)c12`, 21.8 µM; to `CC1=C/C(=C\C=C(C#N)C#N)N(C)c2ccccc21`, 5.2 µM.
The same measure, in the same setting: under `Cn1c(=O)c(NC2CCCCC2)c2c3c(cccc31)C(=O)c1ccccc1-2` stands 1.05 µM; under `Cc1ccnc(N2C(=O)c3cccc4c([N+](=O)[O-])ccc(c34)C2=O)c1`, 7.01 µM; under `C[C@H]1CN([C@@H](C)CO)S(=O)(=O)c2ccc(C#Cc3ccc(F)cc3)cc2O[C@H]1CN(C)C(=O)NC1CCCCC1`, 22.6 µM.
`COc1cc(OC)c(-c2c3cc(O)c(=O)cc-3oc3cc(O)c(O)cc23)cc1OC`: the AC35 was 4.15 µM.
In the case of `COc1ccccc1Nc1nc(-c2sc(NC(=O)C(C)(C)C)nc2C)cs1`, the AC35 was 3.51 µM.
Same read-out and setting: under `COc1ccc(S(=O)(=O)Nc2ccc3c(c2)C(=O)N([C@@H](C)CO)C[C@@H](C)[C@H](CN(C)Cc2ccc(Oc4ccccc4)cc2)O3)cc1` stands 1.52 µM.
Same read-out and setting: under `COc1cc(/C=C2/SC(=S)N(Cc3ccccc3)C2=O)cc(Cl)c1O` stands 3.7 µM.
Consider `CCN(CC)CCn1c2ccccc2c2nc3ccccc3nc21`, for which the AC35 was 17.3 µM.
Take `COc1ccc(C(=O)NCCN(C)C)c2nc3ccccc3cc12`: the AC35 is 25.7 µM.
The same measure, in the same setting: under `CN1c2ccc(-c3ccc(F)cc3)cc2[C@H]2[C@H](CCN2S(=O)(=O)c2ccc(F)cc2)[C@H]1CO` stands 21.9 µM.
`CC(C)(C)c1ccc(OCC(=O)Nc2ccc3c4c(cccc24)C(=O)NC3=O)cc1`: the AC35 is 6.68 µM.
`O=[N+]([O-])c1ccc(/C=C/C2=NN(c3ccccc3)C(c3ccco3)C2)o1` (centres undefined): the AC35 was 2.93 µM.
Same read-out and setting: to `COc1cccc(-c2ccc(C3[C@@H]4CN(S(=O)(=O)c5cccc(OC)c5)C[C@H]3N4)cc2)c1` (some centres undefined) belongs 16 µM; to `Clc1ccc(Nc2ccc3ccccc3n2)cc1`, 4.5 µM; to `COc1cccc2c1C(=O)c1c(O)c3c(c(O)c1C2=O)CC(O)(C(C)=O)CC3OC1CC(N(C)C)C(O)C(C)O1` (centres undefined), 1.03 µM.
Same read-out and setting: under `O=[N+]([O-])c1ccc(Sc2cccc[n+]2[O-])c2nonc12` stands 4.93 µM; under `O=C(Nc1cccc(F)c1)N1CCCCN2[C@@H](CO)[C@H](c3ccc(C#CC4CC4)cc3)[C@@H]2C1`, 20.8 µM; under `NS(=O)(=O)c1ccc(NC(=O)c2cccc3cc4ccccc4nc23)cc1`, 20.9 µM.
For the compound `Nc1c2ccccc2nc2ccccc12`, the AC35 was 12.9 µM.
On the same count and under the same terms, to `O=C1c2cccc(NCCCNCCO)c2C(=O)c2cccc(NCCCNCCO)c21` belongs 5.19 µM; to `COc1ccccc1N1CCN(C(=O)c2ccc(-c3ccc(Cl)cc3)o2)CC1`, 7.37 µM.
`CCN1/C(=C/c2ccc3cc(C)cc(C)c3[n+]2CC)Sc2cc(C)ccc21`: the AC35 was 1.05 µM.
Same read-out and setting: under `CN1C(=CC=C2C=C(I)C(=O)C(I)=C2)C(C)(C)c2ccccc21` stands 5.68 µM.
